Results from PubChem BioAssay AID1259411 (Chemical Carcinogenesis Research Information System (CCRIS), 2018).
Activity calls are given as the source filed them. How the calls were made is not given here.

System: rodent carcinogenicity bioassays, tumor incidence
Test: CCRIS carcinogenicity studies
In short: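 Archive of carcinogenicity, mutagenicity, tumor promotion and tumor inhibition results drawn from journals, NCI reports and other sources, expert-reviewed; covers 1985-2011 and is no longer updated.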

## Oc1ccc2ccccc2c1N=Nc1ccccc1
Species: MOUSE, Route: SUBCUTANEOUS, Tumor Site: Type of Lesion: LIVER
  carcinogen call: active; positive
Species: MOUSE, Strain/Sex: B6C3F1/MALE, Route: ORAL, Dose: 0, 500, 1000 PPM IN DIET, Dose: 0, 500, 1000 PPM IN DIET
  carcinogen call: inactive; negative
Species: RAT, Strain/Sex: F344/FEMALE, Route: ORAL, Dose: 0, 250, 500 PPM IN DIET, Dose: 0, 250, 500 PPM IN DIET, Tumor Site: Type of Lesion: LIVER: NEOPLASTIC NODULE
  carcinogen call: active; positive
Species: RAT, Strain/Sex: F344/MALE, Route: ORAL, Dose: O, 250, 500 PPM IN DIET, Dose: O, 250, 500 PPM IN DIET, Tumor Site: Type of Lesion: LIVER: NEOPLASTIC NODULE
  carcinogen call: active; positive

## ClC(Cl)C(Cl)(Cl)Cl
Species: MOUSE, Strain/Sex: B6C3F1/FEMALE, Route: GAVAGE, Dose: 250, 500 MG/KG IN CORN OIL FOR 41-103 WK (STUDY DURATION: 41-103 WK), Tumor Site: Type of Lesion: LIVER: HEPATOCELLULAR ADENOMA, CARCINOMA
  carcinogen call: active; positive
Species: MOUSE, Strain/Sex: B6C3F1/MALE, Route: GAVAGE, Dose: 250, 500 MG/KG IN CORN OIL FOR 41-103 WK (STUDY DURATION: 41-103 WK), Tumor Site: Type of Lesion: LIVER: HEPATOCELLULAR CARCINOMA
  carcinogen call: active; positive
Species: RAT, Strain/Sex: F344/FEMALE, Route: GAVAGE, Dose: 0, 75, 150 MG/KG IN CORN OIL FOR 103 WK (STUDY DURATION: 103 WK), Dose: 0, 75, 150 MG/KG IN CORN OIL FOR 103 WK (STUDY DURATION: 103 WK)
  carcinogen call: inactive; negative
Species: RAT, Strain/Sex: F344/MALE, Route: GAVAGE, Dose: 0, 75, 150 MG/KG IN CORN OIL FOR 103 WK (STUDY DURATION: 103 WK), Dose: 0, 75, 150 MG/KG IN CORN OIL FOR 103 WK (STUDY DURATION: 103 WK), Tumor Site: Type of Lesion: KIDNEY: TUBULAR CELL ADENOMA
  carcinogen call: equivocal

## Nc1nnc(-c2ccc([N+](=O)[O-])o2)s1
Species: RAT, Route: ORAL, Tumor Site: Type of Lesion: MAMMARY GLAND
  carcinogen call: active; positive

## CC1=CC(O)=NS(=O)(=O)O1
Species: MOUSE, Strain/Sex: SWISS/FEMALE, Route: ORAL, Dose: 0, 3000, 10000, 30000 PPM IN DIET FOR 80 WK (STUDY DURATION: 80 WK), Dose: 0, 3000, 10000, 30000 PPM IN DIET FOR 80 WK (STUDY DURATION: 80 WK)
  carcinogen call: inactive; negative
Species: MOUSE, Strain/Sex: SWISS/MALE, Route: ORAL, Dose: 0, 3000, 10000, 30000 PPM IN DIET FOR 80 WK (STUDY DURATION: 80 WK), Dose: 0, 3000, 10000, 30000 PPM IN DIET FOR 80 WK (STUDY DURATION: 80 WK)
  carcinogen call: inactive; negative
Species: RAT, Strain/Sex: CPB-WK SPF/FEMALE, Route: ORAL, Dose: 0, 3000, 10000, 30000 PPM IN DIET FOR 113 WK (STUDY DURATION: 113 WK), Dose: 0, 3000, 10000, 30000 PPM IN DIET FOR 113 WK (STUDY DURATION: 113 WK)
  carcinogen call: inactive; negative
Species: RAT, Strain/Sex: CPB-WK SPF/MALE, Route: ORAL, Dose: 0, 3000, 10000, 30000 PPM IN DIET FOR 120 WK (STUDY DURATION: 120 WK), Dose: 0, 3000, 10000, 30000 PPM IN DIET FOR 120 WK (STUDY DURATION: 120 WK)
  carcinogen call: inactive; negative

## CC(C)=CC1C(C(=O)OC(C#N)c2cccc(Oc3ccccc3)c2)C1(C)C (stereo not given)
Species: Mouse, Strain/Sex: B6C3F1/Female (80/group), Route: Oral, Dose: 0, 100, 300, 1,000 ppm of 94.6-94.9% pure cyphenothrin for 104 wk, Dose: 0, 100, 300, 1,000 ppm of 94.6-94.9% pure cyphenothrin for 104 wk
  carcinogen call: inactive; negative (study details not presented by dpr evaluator)
Species: Mouse, Strain/Sex: B6C3F1/Male (80/group), Route: Oral, Dose: 0, 100, 300, 1,000 ppm of 94.6-94.9% pure cyphenothrin for 104 wk, Dose: 0, 100, 300, 1,000 ppm of 94.6-94.9% pure cyphenothrin for 104 wk
  carcinogen call: inactive; negative (study details not presented by dpr evaluator)

## Nc1nc(=S)c2ncn([C@H]3C[C@H](O)[C@@H](CO)O3)c2[nH]1
Species: RAT, Strain/Sex: SPRAGUE-DAWLEY/FEMALE, Route: INTRAPERITONEAL, Dose: 0, 3.5, 7 MG/KG FOR 52 WK (STUDY DURATION: 78 WK), Dose: 0, 3.5, 7 MG/KG FOR 52 WK (STUDY DURATION: 78 WK), Tumor Site: Type of Lesion: EAR (CANAL): CARCINOMA, NOS OR SQUAMOUS CELL CARCINOMA
  carcinogen call: active; positive
Species: RAT, Strain/Sex: SPRAGUE-DAWLEY/MALE, Route: INTRAPERITONEAL, Dose: 0, 3.5, 7 MG/KG FOR 52 WK (STUDY DURATION: 78 WK), Dose: 0, 3.5, 7 MG/KG FOR 52 WK (STUDY DURATION: 78 WK), Tumor Site: Type of Lesion: EAR (CANAL): CARCINOMA OR SQUAMOUS CELL CARCINOMA
  carcinogen call: equivocal

## Cc1ccc(N=Nc2c(O)ccc3ccccc23)c([N+](=O)[O-])c1
Species: MOUSE, Strain/Sex: B6C3F1/FEMALE, Route: ORAL, Dose: 0, 12500, 25000, 50000 PPM IN FEED FOR 2 YR (STUDY DURATION: 2 YR), Dose: 0, 12500, 25000, 50000 PPM IN FEED FOR 2 YR (STUDY DURATION: 2 YR)
  carcinogen call: inactive; negative
Species: MOUSE, Strain/Sex: B6C3F1/MALE, Route: ORAL, Dose: 0, 12500, 25000, 50000 PPM IN FEED FOR 2 YR (STUDY DURATION: 2 YR), Dose: 0, 12500, 25000, 50000 PPM IN FEED FOR 2 YR (STUDY DURATION: 2 YR), Tumor Site: Type of Lesion: KIDNEY (CORTEX): ADENOMA, THYROID GLAND (FOLLICULAR CELL): ADENOMA
  carcinogen call: active; positive
Species: RAT, Strain/Sex: F344/FEMALE, Route: ORAL, Dose: 0, 6000, 12500, 25000 PPM IN FEED FOR 2 YR (STUDY DURATION: 2 YR), Dose: 0, 6000, 12500, 25000 PPM IN FEED FOR 2 YR (STUDY DURATION: 2 YR), Tumor Site: Type of Lesion: LIVER: HEPATOCELLULAR ADENOMA
  carcinogen call: active; positive
Species: RAT, Strain/Sex: F344/MALE, Route: ORAL, Dose: 0, 6000, 12500, 25000 PPM IN FEED FOR 2 YR (STUDY DURATION: 2 YR), Dose: 0, 6000, 12500, 25000 PPM IN FEED FOR 2 YR (STUDY DURATION: 2 YR), Tumor Site: Type of Lesion: ADRENAL MEDULLA: PHEOCHROMOCYTOMA (BENIGN OR MALIGNANT)
  carcinogen call: active; positive

## CCCCOC(=O)[C@@H](C)Oc1ccc(Oc2ccc(C(F)(F)F)cn2)cc1
Species: Hamster, Strain/Sex: Syrian golden/Female (51/Group), Route: Oral, Dose: 0, 200, 750, 3000 ppm of 91.6% fluazifop-o-butyl (0; 10.6; 40; 158 mg/kg/day) in diet for 81-83 wks, study duration 83 w, Dose: 0, 200, 750, 3000 ppm of 91.6% fluazifop-o-butyl (0; 10.6; 40; 158 mg/kg/day) in diet for 81-83 wks, study duration 83 w
  carcinogen call: inactive; negative
Species: Hamster, Strain/Sex: Syrian golden/Male (51/Group), Route: Oral, Dose: 0, 200, 750, 3000 ppm of 91.6% fluazifop-o-butyl (0; 11.1; 42; 174 mg/kg/day) in diet for 81-83 wks, study duration 83 w, Dose: 0, 200, 750, 3000 ppm of 91.6% fluazifop-o-butyl (0; 11.1; 42; 174 mg/kg/day) in diet for 81-83 wks, study duration 83 w
  carcinogen call: inactive; negative
Species: Rat, Strain/Sex: Wistar/Female (60/Group), Route: Oral, Dose: 0, 2, 10, 80, 250 ppm of 94.8% fluazifop-o-butyl (0; 0.11; 0.53; 4.3; 13.4 mg/kg/day) in diet for 2 yrs, study duration, Dose: 0, 2, 10, 80, 250 ppm of 94.8% fluazifop-o-butyl (0; 0.11; 0.53; 4.3; 13.4 mg/kg/day) in diet for 2 yrs, study duration
  carcinogen call: inactive; negative
Species: Rat, Strain/Sex: Wistar/Male (60/Group), Route: Oral, Dose: 0, 2, 10, 80, 250 ppm of 94.8% fluazifop-o-butyl (0; 0.08; 0.41; 3.3; 10.2 mg/kg/day) in diet for 2 yrs, study duration, Dose: 0, 2, 10, 80, 250 ppm of 94.8% fluazifop-o-butyl (0; 0.08; 0.41; 3.3; 10.2 mg/kg/day) in diet for 2 yrs, study duration
  carcinogen call: inactive; negative

## C=CCOC(Cn1ccnc1)c1ccc(Cl)cc1Cl (stereo not given)
Species: Mouse, Strain/Sex: Swiss/Female (50/Group), Route: Oral, Dose: 0, 50, 200, 600 ppm 93% imazalil in diet in 50:50 Aerosil:corn starch for 2 yr, study duration 2 yr, Dose: 0, 50, 200, 600 ppm 93% imazalil in diet in 50:50 Aerosil:corn starch for 2 yr, study duration 2 yr, Tumor Site: Type of Lesion: Liver: hepatocytic neoplasms
  carcinogen call: active; positive
Species: Mouse, Strain/Sex: Swiss/Male (50/Group), Route: Oral, Dose: 0, 50, 200, 600 ppm 93% imazalil in diet in 50:50 Aerosil:corn starch for 2 yr, study duration 2 yr, Dose: 0, 50, 200, 600 ppm 93% imazalil in diet in 50:50 Aerosil:corn starch for 2 yr, study duration 2 yr, Tumor Site: Type of Lesion: Liver: hepatocytic neoplasms
  carcinogen call: active; positive
Species: Rat, Strain/Sex: Cpb:WU/Female (20/Group), Route: Oral, Dose: 0, 25, 100, 400 ppm 98.1% imazalil in diet for 18 mo, study duration 18 mo, Dose: 0, 25, 100, 400 ppm 98.1% imazalil in diet for 18 mo, study duration 18 mo
  carcinogen call: inactive; negative
Species: Rat, Strain/Sex: Cpb:WU/Male (20/Group), Route: Oral, Dose: 0, 25, 100, 400 ppm 98.1% imazalil in diet for 18 mo, study duration 18 mo, Dose: 0, 25, 100, 400 ppm 98.1% imazalil in diet for 18 mo, study duration 18 mo
  carcinogen call: inactive; negative

## O=[N+]([O-])c1ccc2ncccc2c1
Species: RAT, Strain/Sex: F344/MALE,FEMALE, Route: ORAL, Dose: 0.05% IN DIET FOR 2 YR
  carcinogen call: inactive; negative
